Assay results taken from US7417025B2, “Use of poly-α2,8-sialic acid mimetic peptides to modulate NCAM functions” (Centre National de la Recherche Scientifique, priority 2002, dated 2008).
Entries after “also recorded” stand apart in the source; their conditions may differ.

How the values were obtained:
30H12 antibody = test: ELISA with peptide-BSA conjugate on 30H12-coated plates; format: binding; settings: no competitor, FIG. 12A
Description: FIG. 12A: ELISA using 30H12 anti-PSA monoclonal antibody-coated plates.
The specificity of the cyclic peptides was investigated in an ELISA assay using plates coated with 30H12 antibody, following the protocol as described above for the competitive ELISA, with the exception that the competitor was omitted.

[1] = tested on: 30H12 monoclonal antibody; test: Competitive binding to PSA-NCAM expressing cells (30H12); set-up: dose or concentration left out as unconfirmed
Experimental: FIGS. 12B, 12C and 12D: competitive binding to PSA-NCAM expressing cells. B: pre-incubation of p65 (1 mM) or p66 (1 mM) with MenB anti-PSA antibody. C: 30H12 anti-PSA antibody without peptide. […]
(§1) The specificity of p65 and p66 peptides was tested in a competition assay using anti-PSA antibodies and PSA-NCAM expressing cells. […] The binding specificity was examined in greater detail by testing peptide recognition by another anti-PSA mononclonal antibody (MenB). […] Thus, p65 and p66 mimotopes appear to be specific for a unique (idiotypic) determinant.

MenB anti-PSA antibody = test: Competitive binding to PSA-NCAM expressing cells (MenB)
Experimental: FIGS. 12B, 12C and 12D: competitive binding to PSA-NCAM expressing cells. B: pre-incubation of p65 (1 mM) or p66 (1 mM) with MenB anti-PSA antibody. C: 30H12 anti-PSA antibody without peptide. D: pre-incubation of p65 (1 mM) or p66 (1 mM) with 30H12 anti-PSA antibody.
as §1

[2] = tested on: Mouse dorsal root ganglion explants (E13.5); test: Dorsal root ganglion explant culture: neurite outgrowth and fasciculation; format: cell-based
Experimental: E13.5 DRGs were dissected out from mice embryos in HBSS medium and seeded on glass coverslips coated with polylysine or with peptides linked to BSA. Explants were cultured in the presence or the absence of the peptides under soluble form (40 μM) in two ml of neurobasal medium (DMEM/Ham's F12, 3:1 (V/V), GIBCO, buffered with 20 mM Hepes), supplemented as described in Faivre-Sarrailh et al., J. Cell. Sci., 1999, 18, 3015-3027 and Chazal et al., J.Neurosci., 2000, 20, 1446-1457.
Fixed DRGs (Dorsal Root ganglia) explants and sections were incubated at 4° C. respectively 2 hr with an anti-neurofilament (SMI-31, dilution 1:800, STERNBERGER MONOCLONALS) and overnight with an anti-PSA antibody (dilution 1:200, Rougon et al, J. Cell. Biol., 1986, 103, 2429-2437). Revelation was performed by 1 hr incubation with the corresponding fluorescent-labeled secondary antibody (Goat anti-mouse IgM or IgG conjugated with texas red, IMMUNOTECH)
(§2) After 48 h in culture, explants were examining directly (SVZ) or after overnight fixation with a 4% paraformaldehyde solution in PBS and immunostaining (DRGs). Observation was done using 2, 5×, 5×, 10× and 32× objectives (Axiovert 35M, ZEISS). Images were collected with a video camera (Cool View, PHOTONIC SCIENCE) and analysed using image-processing software (Visiolab1000, BIOCOM). Mean migration distance (calculated on five different experiments, including at least five explants per condition) or mean length of the longest neurite (calculated on two different experiments, including at least eight explants per condition), was the distance in micrometers between the explant edge and the border of the cell migration front. Four measurements were performed for each explant. The significance of the differences between the control and the different experimental conditions was calculated by Student's t test.
Mouse dorsal root ganglion explants (E13.5) were cultured in the presence of p65 and p66 cyclic mimetic peptides, either in soluble form or coated on the microplates as BSA conjugates. Cells cultured in the absence of peptides or in the presence of reverse peptides (coated or in soluble form) were used as controls.

chick retina axons = test: Intravitreal injection in chick embryo, retinal whole mount: axon fasciculation and guidance in vivo; settings: injected into chicken embryo eyes at E3, retina observed at E9
Experimental: The dashed rectangle indicates the area from which photographs were taken. Arrows point toward the optic fissure. Axons of E9 chick retina injected at E3 with the reverse peptide (C,F) or the p65 peptide (D,G,E,H). Arrowheads show examples of axons that leave their fascicle and run perpendicularly to it.
Injections were performed as described in Monnier et al. (Developmental Biology, 2001, 229, 1-14). Briefly, a 2×2 cm window was cut into the shell over E3 chick embryos. One μl of Fast green with 10 mM of p65 or reverse peptide was injected into the right eye vitreous body using a capillary. After a five-days incubation at 37° C., (E8) retinae were dissected, spread onto nitrocellulose filters (MILIPORE), and fixed with 4% paraformaldehyde solution in PBS. Two small DiI (1,1′-dioctadecyl-3,3,3′,3′-tetramethylindocarbocyanine perchlorate) crystals were applied dorsally to the optic fissure. Retinae were stored in the dark at 37° C. for 10 days until the dye reached the axonal growth cones in the fissure, mounted in glycerol:PBS (9:1, v:v) and analysed using confocal microscopy.

[3] = tested on: subventricular zone explants (neuronal precursors); test: Subventricular zone (SVZ) explant culture: cell migration in vitro; format: cell-based, mouse
Experimental: Cultures of SVZ explants were performed as described in Chazal et al., precited. Briefly, 1-day-old mice were killed by rapid decapitation. Brains were dissected out and sectionned by Vibratome (Leica). The SVZ from the lateral wall of the anterior lateral ventricle horn was dissected out in HBSS medium (LIFE TECHNOLOGIES) and cut into 200-300 μm diameter explants. The explants were mixed with Matrigel (BECKTON DICKINSON) and cultured in four-well dishes. After polymerisation, the gel was overlaid with 400 μl of serum-free medium containing B-27 supplement (LIFE TECHNOLOGIES), in the presence or the absence of 40 μM of peptides (p65, p66, reverse p65, p21 or p22) and 70 U of Endo N per milliliter.
as §2

[4] = tested on: subventricular zone explants (neuronal precursors); test: as above; format: cell-based, mouse; settings: 0.4 μM peptide
[5] = peptide in coated form (BSA conjugate)
[6] = peptide in soluble form (40 μM), versus controls

For CSKIASMETGCG [p66], the “Binding of cyclic peptides to 30H12 antibody in ELISA” value (30H12 antibody) was “highest binding”, the “Binding of 30H12 monoclonal antibody to PSA-NCAM expressing cells after pre-incubation with peptide” value [1] was “prevented its binding” and the “Recognition of PSA-NCAM by MenB after pre-incubation with peptide” value (MenB anti-PSA antibody; FIG. 12C) was “did not prevent recognition of PSA-NCAM”. For the same sequence, the “Antibody specificity of peptide binding (30H12 versus MenB)” value (MenB anti-PSA antibody; in words) was “bind only to 30H12”, the Fasciculation [2, 5] was “opposite effect on fasciculation” and the Neurite outgrowth [2, 5] was “no effect on neurite outgrowth; also recorded: no significant increase”. For the same sequence, the Axonal growth [2, 6] was “significant increase in axonal growth”, the “Fasciculation of axon bundles” value [2, 6] was “clear defasciculation of axon bundles” and the “Increase of neurite outgrowth compared to the controls” value ([2]; peptide in soluble form, mean length of the longest neurite) was 21%. The “Axon guidance and fasciculation in retina in vivo” value (chick retina axons) was “axons guidance and fasciculation defects”, the “Rate of migration of the neuronal precursors and chain-like arrangement” value ([3]; SVZ explants in Matrigel, FIG. 4) was “increases the rate of migration” and the “PSA-dependence of the migration effect” value ([3]; with endo N treatment) was “abolished by endo N treatment”. For the same sequence, the “Increase in the rate of migration of the neuronal precursors compared with the control without peptide” value [4] was “+26%”.
